Results as given in patent publication US20080014162A1, “Method to treat skin in need of a calmative using at least one C-Glycoside derivative” (L'OREAL, priority 2006, published 2008).

Key:
[1] = tested on: interleukin-8 secreted by normal human epidermal keratinocytes (NHEK); assay: Assay of IL8 without stimulation in normal human epidermal keratinocytes; assay type: cell-based; conditions: concentration 2%
Source text: Dermatol., 102: 915-922 (1994)].

[2] = tested on: interleukin-8 secreted by normal human epidermal keratinocytes (NHEK) after stimulation with retinol; assay: Assay of IL8 + stimulation with retinol in normal human epidermal keratinocytes (anti-irritant effect); conditions: for % blank (+retinol): IL8 as % of blank (+retinol); for IL8: 24 hours at 37° C.
Procedure: This test allows evaluation of the anti-irritant potential of various molecules, on a human keratinocyte (NHEK) cell line. In this test, an irritant situation is mimicked by exacerbating the production of IL-8 by the NHEKs by addition of retinol to the culture medium, Il-8 being involved in the initiation of keratinocyte irritation. Next, the anti-irritant effect of a C-glycoside compound is measured by means of its inhibitory action with respect to this exacerbated production.
Normal human epidermal keratinocytes are incubated in the presence of 10^−6 M retinol for 24 hours at 37° C. In response to the retinol, the production of the chemotactic agent interleukine 8 (IL-8) is measured via enzymatic assay using an assay kit (Elisa D8050) sold by the company R&D. The absorbance values are measured with a microplate reader (MRX/Dynatech) according to the procedures supplied with the assay kit.
A control test is also performed with dexamethasone, which is a reference calmative.
The results are expressed as a percentage of the control values after subtracting the background noise and as a percentage of inhibition of these values obtained in the presence of the compounds.

[3] = NHEK + 10^−6 M retinol, 24 hours, concentration 2%

Compound	% blank ([1]; IL8 as % of blank) [%]	% viability [1] [%]	IL8 [1] [pg/mL]	% blank (+retinol) [2, 3] [%]	IL8 ([2]; NHEK + 10^−6 M retinol, concentration 2%) [pg/mL]	% viability [2, 3] [%]	effect on the irritant reaction of retinol ([2]; conclusion in words from the IL8 assay in NHEK)	% blank (+retinol) ([2]; NHEK + 10^−6 M retinol, 24 hours, concentration 10^−7M) [%]	IL8 ([2]; NHEK + 10^−6 M retinol, concentration 10^−7M) [pg/mL]
CC(O)C[C@@H]1OC[C@@H](O)[C@H](O)[C@H]1O (stereo partly drawn) [C-β-D-xylopyranoside-2-hydroxypropane]	53	97	145.2	60	124.4	104	reduces the irritant reaction of retinol	–	–
C[C@@H]1C[C@H]2[C@@H]3CCC4=CC(=O)C=C[C@]4(C)[C@@]3(F)[C@@H](O)C[C@]2(C)[C@@]1(O)C(=O)CO [Dexamethasone, reference compound]	–	–	–	–	–	–	–	57	117.7
